The values that follow come from US20220249447A1, “CF3-, OCF3-, SCF3-, and SF5-Containing Antibacterial Agents” (Purdue Research Foundation, priority 2019, published 2022).

A word on the MIC: it is the lowest concentration found to suppress growth.

In brackets after ≈: the same amount, converted by molar mass.

The test system of assay [1] is VRE ATCC 51575. Briefly: MIC, broth microdilution, VRE ATCC 51575. Type of assay: cell-based. The following applies: Enterococcus. How it is done:
(§1) Bacteria were cultured in cation-adjusted Mueller Hinton Broth (for strains in Tables 1-3) or Brain Heart Infusion broth (for Enterococcus faecium) or Tryptic Soy Broth (all other bacteria) in a 96-well plate at 37° C. for at least 20 hours. The MIC was classified as the lowest concentration where no visual growth of bacteria was observed. The minimum bactericidal concentration (MBC) was tested by spotting 4 μL from wells with no growth onto Tryptic Soy Agar (TSA) plates. Plates were incubated at 37° C. for at least 18 hours before recording the MBC.
In general terms: Broth dilution looks for growth in wells or tubes with falling amounts of substance.

In assay [2] the test system is C. difficile NR-32904 (P30). Description: MIC against C. difficile NR-32904 (P30). Type of assay: cell-based. The conditions noted are these: Clostridioides difficile; read-out: MIC C. difficile NR-32904 (P30). The method, then:
as §1

The subject of assay [3] is C. difficile ATCC BAA 1801. Briefly: MIC against C. difficile ATCC BAA 1801. The conditions noted are these: Clostridioides difficile, BAA1801; read-out: MIC C. difficile ATCC BAA 1801. Type of assay: cell-based. How it is done:
as §1

In assay [4] the test system is C. difficile NR-32883 (P2). Briefly: MIC against C. difficile NR-32883 (P2). Type of assay: cell-based. The conditions noted are these: Clostridioides difficile; read-out: MIC C. difficile NR-32883 (P2). The method, then:
as §1

Assay [5] deals with C. difficile NR-32895 (P19). Briefly: MIC against C. difficile NR-32895 (P19). The class given is cell-based. The following applies: Clostridioides difficile; read-out: MIC C. difficile NR-32895 (P19). How it is done: as §1
Assay [6] concerns MRSA ATCC 33592. Briefly: MIC, broth microdilution, MRSA ATCC 33592. The following applies: Staphylococcus aureus. The class given is cell-based, methicillin-resistant S. aureus. The method in brief:
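MRSA was grown in cation-adjusted Mueller Hinton Broth at 37° C for at least 20 h. MIC was taken as the lowest concentration with no visible growth.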

Assay [7] concerns S. aureus. Description: MIC, broth microdilution, S. aureus. Type of assay: cell-based. The following applies: Staphylococcus aureus. The method in brief:
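96-well broth dilution; medium per strain: cation-adjusted MHB, BHI (E. faecium) or TSB; 37° C, ≥20 h; MIC = lowest concentration without visual growth.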

In assay [8] the test system is C. difficile NR-13435 (isolate 9). Briefly: MIC against C. difficile NR-13435 (isolate 9). The class given is cell-based. The conditions noted are these: Clostridioides difficile; read-out: MIC C. difficile NR-13435 (isolate 9). The method, then: as §1
Assay [9] relates to C. difficile NR-13432 (isolate 6). Briefly: MIC against C. difficile NR-13432 (isolate 6). The class given is cell-based. The following applies: Clostridioides difficile; read-out: MIC C. difficile NR-13432 (isolate 6). How it is done:
as §1

In assay [10] the test system is C. difficile NR-32891 (P13). Briefly: MIC against C. difficile NR-32891 (P13). Type of assay: cell-based. The conditions noted are these: Clostridioides difficile; read-out: MIC C. difficile NR-32891 (P13). How it is done:
as §1

Assay [11] has as its system E. faecalis ATCC 29212. Description: MIC, broth microdilution, E. faecalis ATCC 29212. The class given is cell-based. The conditions noted are these: Enterococcus faecalis, ATCC29212. The method, then: as §1
Assay [12] concerns MRSA USA300 cells. Briefly: Time-kill assay. Type of assay: cell-based. The following applies: for Δlog2 CFU/mL: MRSA USA300, 3× MIC or 6× MIC, up to 24 hours. The method, then: The time-kill analysis was performed as previously described^29. […] Aliquots (100 μL) were collected from each treatment after 0, 2, 4, 8, 12, and 24 hours of incubation at 37° C. and subsequently serially diluted in phosphate-buffered saline (PBS). Bacteria were then transferred to TSA plates and incubated at 37° C. for 18-20 hours before viable CFU/mL was determined (see FIG. 2).

In assay [13] the test system is L. monocytogenes ATCC 19115. Description: MIC, broth microdilution, L. monocytogenes ATCC 19115. Type of assay: cell-based. The following applies: Listeria monocytogenes, ATCC19115. The method, then:
as §1

The subject of assay [14] is Neisseria gonorrhea strain 181. Description: MIC against Neisseria gonorrhea strain 181. Type of assay: cell-based. The method, then: as §1
For assay [15], the system named is C. difficile ATCC 43255. Description: MIC against C. difficile ATCC 43255. The class given is cell-based. The following applies: Clostridioides difficile, ATCC43255; read-out: MIC C. difficile ATCC 43255. How it is done:
as §1

Consider `O=C(Nc1nnc(-c2cccs2)o1)c1ccc(SC(F)(F)F)cc1` [HSGN-148, N-(5-(thiophen-2-yl)-1,3,4-oxadiazol-2-yl)-4-((trifluoromethyl)thio)benzamide], for which the minimum inhibitory concentration (MIC) in [1] worked out at 4 µg/mL (≈ 10.8 µM); in [2], 0.5 µg/mL (≈ 1.35 µM); in assay [3] it was 0.5 µg/mL (≈ 1.35 µM); in [4], 0.5 µg/mL (≈ 1.35 µM); in assay [5], 0.5 µg/mL (≈ 1.35 µM); in assay [6], 0.5 µg/mL (≈ 1.35 µM). For the same molecule, the MIC in assay [7] was found to be 1 µg/mL (≈ 2.69 µM); in assay [8], 0.5 µg/mL (≈ 1.35 µM); in assay [9], 0.5 µg/mL (≈ 1.35 µM); in [10], 0.5 µg/mL (≈ 1.35 µM); in [11], 4 µg/mL (≈ 10.8 µM); in assay [13], 2 µg/mL (≈ 5.39 µM). The minimum inhibitory concentration (MIC) was 0.06 µg/mL (≈ 0.162 µM) in [14] and 0.5 µg/mL (≈ 1.35 µM) in assay [15]. In assay [12], the Bactericidal/Bacteriostatic result is “Bactericidal”. Besides, in assay [12], the “Δlog2 CFU/mL” value is given as 4.2.

As to `O=C(Nc1nnc(-c2cccc(F)c2)o1)c1ccc(SC(F)(F)F)cc1` [HSGN-205, N-(5-(3-fluorophenyl)-1,3,4-oxadiazol-2-yl)-4-((trifluoromethyl)thio)benzamide], the MIC in assay [1] turned out to be 4 µg/mL (≈ 10.4 µM); in [2], 0.015 µg/mL (≈ 0.0391 µM); in assay [3] it was 0.03 µg/mL (≈ 0.0783 µM); in [4], 0.003 µg/mL (≈ 0.00783 µM); in [5], 0.007 µg/mL (≈ 0.0183 µM); in assay [6], 0.25 µg/mL (≈ 0.652 µM). The MIC in [7] turned out to be 0.5 µg/mL (≈ 1.3 µM); in [8], 0.007 µg/mL (≈ 0.0183 µM); in assay [9], 0.03 µg/mL (≈ 0.0783 µM); in [10] it was 0.03 µg/mL (≈ 0.0783 µM); in assay [11], 2 µg/mL (≈ 5.22 µM); in assay [13], 1 µg/mL (≈ 2.61 µM). The minimal inhibitory concentration (MIC) in assay [14] is 0.25 µg/mL (≈ 0.652 µM); in assay [15], 0.003 µg/mL (≈ 0.00783 µM).

In the case of `O=C(Nc1nnc(-c2cccs2)o1)c1ccc(S(F)(F)(F)(F)F)cc1` [HSGN-144, 4-(pentafluoro-sulfanyl)-N-(5-(thiophen-2-yl)-1,3,4-oxadiazol-2-yl)benzamide], the minimal inhibitory concentration (MIC) amounted to 2 µg/mL (≈ 5.03 µM) in [1]; 0.125 µg/mL (≈ 0.315 µM) in [2]; 0.03 µg/mL (≈ 0.0755 µM) in [3]; 0.003 µg/mL (≈ 0.00755 µM) in assay [4]; 0.06 µg/mL (≈ 0.151 µM) in [5]; 0.5 µg/mL (≈ 1.26 µM) in assay [6]. Also, the minimal inhibitory concentration (MIC) is 0.25 µg/mL (≈ 0.629 µM) in [7]; 0.015 µg/mL (≈ 0.0378 µM) in [8]; 0.015 µg/mL (≈ 0.0378 µM) in assay [9]; 0.125 µg/mL (≈ 0.315 µM) in [10]; 2 µg/mL (≈ 5.03 µM) in assay [11]; 1 µg/mL (≈ 2.52 µM) in assay [13]. Moreover, the minimal inhibitory concentration (MIC) in [15] is 0.125 µg/mL (≈ 0.315 µM). Moreover, the Bactericidal/Bacteriostatic entry in [12] is reported as “Bactericidal”. Besides, the “Δlog2 CFU/mL” value in assay [12] is given as 3.96.

Regarding `O=C(Nc1nnc(-c2cccs2)o1)c1ccc(OC(F)(F)F)cc1` [HSGN-145, N-(5-(thiophen-2-yl)-1,3,4-oxadiazol-2-yl)-4-(trifluoromethoxy)benzamide], the MIC in [1] worked out at 8 µg/mL (≈ 22.5 µM); in assay [2] it was 1 µg/mL (≈ 2.81 µM); in [3] it was 0.5 µg/mL (≈ 1.41 µM); in assay [4], 1 µg/mL (≈ 2.81 µM); in assay [5], 1 µg/mL (≈ 2.81 µM); in assay [6], 1 µg/mL (≈ 2.81 µM). Moreover, the MIC was 1 µg/mL (≈ 2.81 µM) in assay [7]; 0.5 µg/mL (≈ 1.41 µM) in [8]; 0.5 µg/mL (≈ 1.41 µM) in assay [9]; 2 µg/mL (≈ 5.63 µM) in [10]; > 8 µg/mL in [11]; 8 µg/mL (≈ 22.5 µM) in [13]. Besides, the minimal inhibitory concentration (MIC) in [15] was 0.5 µg/mL (≈ 1.41 µM). The Bactericidal/Bacteriostatic result in [12] is reported as “Bacteriostatic”. The “Δlog2 CFU/mL” value in assay [12] came to 0.69.
